# “Also recorded” adds a separate entry of the source. Residues, ends and D or L forms follow the SMILES beside them. *: point of attachment. X1 = O=C(Cc1ccc2ccccc2c1)N[C@H](Cc1ccccc1)C(=O)N[C@H](Cc1ccccc1)C(=O)N[C@H](CCCCN*)C(=O)N[C@H](Cc1ccc(O)cc1)C(=O)O
# Assays:
# Saos-2 cells = assay: MTT cell viability assay, Saos-2 cells; assay type: cell-based; conditions: 400 μM, three days, absorbance 595 nm, three independent experiments
# Description: (§1) We investigated the cell compatibility of 1 and 2 by incubation with two kinds of mammalian cells, HeLa and Saos-2 cells, using the 3-(4,5-dimethylthiazol-2-yl)-2,5-diphenyl tetrazolium bromide (MTT) assay. The cell viability of HeLa and Soas-2 cells after being incubated with 1 (400 μM) for three days are about 90% and 80%, respectively. […] To confirm that 1 and 2 convert from micelles to nanofibers in a cellular environment, we incubated of 1 or 2 at 500 μM in the lysates of HeLa cells (Figure S5, Supporting Information File 1) and examined the amount of each component in % by LC–MS. After 24 h incubation, 44% of 1 or 39% of 2, was cleaved to Nap-ffky, which self-assembles as part for the nanofibers. […] Then, we used confocal laser scanning microscopy (CLSM) to examine whether these compounds deliver RPE into HeLa cells. […]
# (§2) Circular dichroism (CD) analysis : CD spectra were recorded ([…]) using a JASCO 810 spectrometer under a nitrogen atmosphere. […] The percentage of the secondary structures in different samples was calculated by the programs provided in DichroWeb. […]
# (§3) reaction and to dissolve the purple formazan. After incubation of the cells at 37 ° C overnight, the absorbance of each well at 595 nm was measured in a multimode microplate reader. […]
# HeLa cells = assay: MTT cell viability assay, HeLa cells; assay type: cell-based; conditions: 400 μM, three days, absorbance 595 nm, three independent experiments
# Description: as §1, §2, §3
# proteinase K [1] = biological target: proteinase K (Parengyodontium album, UniProt P06873); assay: Enzymatic proteolysis catalyzed by proteinase K, LC-MS; assay type: in vitro ADME; conditions: for proteolytic products with proteinase K: 5 mM peptide, proteinase K 5 U/mL, Tris-HCl buffer pH 7.0, 24 h, LC-MS
# Sequence of proteinase K (Parengyodontium album, UniProt P06873) (P06873 106-384, species assumed): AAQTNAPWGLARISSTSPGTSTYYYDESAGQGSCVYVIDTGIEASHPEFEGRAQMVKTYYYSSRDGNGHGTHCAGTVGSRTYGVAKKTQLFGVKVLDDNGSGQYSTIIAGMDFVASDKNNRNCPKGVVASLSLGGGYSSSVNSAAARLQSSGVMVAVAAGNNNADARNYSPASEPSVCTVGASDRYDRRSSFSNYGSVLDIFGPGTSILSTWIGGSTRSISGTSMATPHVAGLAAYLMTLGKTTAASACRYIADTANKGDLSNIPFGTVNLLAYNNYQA
# Description: After having obtained the peptides 1 and 2, we examined the enzymatic proteolysis of 1 and 2 catalyzed by proteinase K. We added proteinase K, a powerful endopeptidase, to the solutions of 1 and 2 (5 mM, pH 7.0, in Tris-HCl buffer). […] Then, we conducted a time-dependent CD analysis to examine the change of the secondary structural conformations of 1 and 2 during the proteolysis catalyzed by proteinase K in Tris-HCl buffer at pH 7.0. […] During the transition from micelles to fibrils, the CD signal at 210 nm reverses the sign, likely due to the self-assembly of Nap-ffky to helical fibrils. Analyzing the CD spectra by the Contin-LL analysis program, we estimated the percentage of each conformation, further confirming the trend and the assignment of the dominant conformation. As shown in Figure 2C and Figure 2F, the initial state of peptide 1 has more β-strand conformations than that of peptide 2. With increasing proteolysis time, the CD spectra indicate that the cleavage of 1 or 2 results in more assemblies that favor β-strand conformations (Figure 2D and Figure 2E). In addition, the ratio of the β-strand conformation resulted from the cleavage of 1 being slightly faster than that of 2.
# Figure 2 A) LC–MS spectrum of the proteolytic products after 1 (5 mM) was incubated with proteinase K (5 U/mL) for 24 h. B) Time-dependent circular dichroism (CD) spectra of 1 incubated with proteinase K in Tris-HCl buffer at pH 7.0. C) CD simulation of the mixture from the spectra in B. D) LC–MS spectrum of the proteolytic products after 2 (5 mM) was incubated with proteinase K (5 U/mL) for 24 h. E) Time-dependent CD spectra of 2 incubated with proteinase K in Tris-HCl buffer at pH 7.0. F) CD simulation of the mixture from the spectra in E.
# [2] = assay type: in vitro ADME; conditions: 500 μM peptide in HeLa cell lysate, 24 h, 37 °C, lysis buffer pH 7.4, LC-MS
# Description: as §1, with “cells. After mixing R-phycoerythrin (RPE), a red fluorescent protein, with 1 or 2 at different concentrations, we incubated the mixtures with HeLa cells for 2 h and 4 h.” for “cells.”
# reaction and to dissolve the purple formazan. After incubation of the cells at 37 ° C overnight, the absorbance of each well at 595 nm was measured in a multimode microplate reader. Three independent experiments were performed, with an average ± […]
# Confocal microscopy: Cells in the exponential growth phase were seeded in a glass-bottomed culture chamber at 1 × 10^5 cells/well. […]
# enterokinase (ENTK) [3] = biological target: enterokinase (ENTK) (Homo sapiens, UniProt P98073); assay: Proteolysis by enterokinase (ENTK); assay type: in vitro ADME; conditions: Figures S3 and S4
# Sequence of enterokinase (ENTK) (Homo sapiens, UniProt P98073) (P98073 whole entry, species assumed): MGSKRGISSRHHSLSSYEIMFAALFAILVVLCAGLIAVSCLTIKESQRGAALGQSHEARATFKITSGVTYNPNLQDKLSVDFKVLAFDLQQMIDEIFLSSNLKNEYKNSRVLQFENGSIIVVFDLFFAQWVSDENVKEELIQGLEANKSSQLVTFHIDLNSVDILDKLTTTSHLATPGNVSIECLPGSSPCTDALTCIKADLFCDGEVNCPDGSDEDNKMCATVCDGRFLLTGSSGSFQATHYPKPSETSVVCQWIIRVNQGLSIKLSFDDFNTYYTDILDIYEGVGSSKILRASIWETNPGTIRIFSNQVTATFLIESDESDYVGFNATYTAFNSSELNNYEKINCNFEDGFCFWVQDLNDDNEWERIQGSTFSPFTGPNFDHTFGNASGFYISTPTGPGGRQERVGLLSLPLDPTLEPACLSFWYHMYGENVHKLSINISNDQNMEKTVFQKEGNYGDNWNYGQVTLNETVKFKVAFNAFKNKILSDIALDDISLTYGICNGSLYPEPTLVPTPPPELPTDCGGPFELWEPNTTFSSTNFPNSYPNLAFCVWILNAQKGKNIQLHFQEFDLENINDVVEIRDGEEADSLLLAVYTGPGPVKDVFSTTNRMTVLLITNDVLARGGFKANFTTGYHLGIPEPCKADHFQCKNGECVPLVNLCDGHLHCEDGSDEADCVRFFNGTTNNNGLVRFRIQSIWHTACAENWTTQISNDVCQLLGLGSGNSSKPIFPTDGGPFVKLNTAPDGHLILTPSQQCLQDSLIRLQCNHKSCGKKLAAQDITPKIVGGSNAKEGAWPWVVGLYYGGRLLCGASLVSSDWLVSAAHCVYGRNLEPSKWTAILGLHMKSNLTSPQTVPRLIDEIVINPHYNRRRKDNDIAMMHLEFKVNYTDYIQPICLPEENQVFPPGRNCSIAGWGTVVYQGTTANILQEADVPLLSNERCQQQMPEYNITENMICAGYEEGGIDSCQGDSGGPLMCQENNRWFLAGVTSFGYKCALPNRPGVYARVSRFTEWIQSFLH
# Excerpt: In addition, unlike the FLAG-tag-based branched peptides, 1 and 2 are proteolytic-resistant to enterokinase (ENTK, Figures S3 and S4, Supporting Information File 1).
# proteinase K [4] = assay: proteinase K (5 U/mL) in Tris-HCl buffer, pH 7.0; conditions: up to 24 h
# [5] = lysates of HeLa cells, in 10 mmol of lysis buffer at pH 7.4; conditions: 37 °C, up to 24 h
# enterokinase (ENTK) [6] = assay: enterokinase (ENTK)
fragment found [5],not cleaved (enterokinase (ENTK) [6]),Compound,cell viability (Saos-2 cells) [%],cell viability (HeLa cells),proteolytic products with proteinase K (proteinase K [1]),amount cleaved to Nap-ffky [2] [%],resistance to proteolysis by enterokinase (enterokinase (ENTK) [3]),fragment found (proteinase K [4]),"stability towards the proteolysis (acetylated versus non-acetylated branch) (proteinase K [1]; proteinase K, compared with 1)"
–,–,"CC[C@H](C)[C@H](NC(=O)[C@H](CC(C)C)NC(=O)[C@H](CC(C)C)NC(=O)[C@H](CC(=O)O)NC(=O)[C@H](CC(=O)O)NC(=O)[C@H](CC(=O)O)NC(=O)[C@H](CCC(=O)O)NC(=O)[C@@H](N)CC(=O)O)C(=O)NCC(=O)NCCCC[C@@H](NC(=O)[C@@H](Cc1ccccc1)NC(=O)[C@@H](Cc1ccccc1)NC(=O)Cc1ccc2ccccc2c1)C(=O)N[C@H](Cc1ccc(O)cc1)C(=O)O [compound 1, Nap-ffk(NH2-DEDDDLLIG)y] (H-DEDDDLLIG-X1)",~80,about 90%,undergoes proteolytic cleavage to form DEDDDLLIG and Nap-ffky,44,proteolytic-resistant,–,–
"Nap-ffky, 24 h",proteolytic-resistant to enterokinase,Nap-ffk(NH2-DEDDDLLIG)y,–,–,–,–,–,"DEDDDLLIG, 24 h; also recorded: Nap-ffky, 24 h",–
–,–,"CC[C@H](C)[C@H](NC(=O)[C@H](CC(C)C)NC(=O)[C@H](CC(C)C)NC(=O)[C@H](CC(=O)O)NC(=O)[C@H](CC(=O)O)NC(=O)[C@H](CC(=O)O)NC(=O)[C@H](CCC(=O)O)NC(=O)[C@H](CC(=O)O)NC(C)=O)C(=O)NCC(=O)NCCCC[C@@H](NC(=O)[C@@H](Cc1ccccc1)NC(=O)[C@@H](Cc1ccccc1)NC(=O)Cc1ccc2ccccc2c1)C(=O)N[C@H](Cc1ccc(O)cc1)C(=O)O [compound 2, Nap-ffk(AcNH-DEDDDLLIG)y] (Ac-DEDDDLLIG-X1)",–,–,"proteolytically hydrolyzes into four parts, including DEDDDLLIG, DEDDDLL, DEDDDL, and Nap-ffky",39,proteolytic-resistant,–,enhanced stability towards the proteolysis
"Nap-ffky, 24 h",proteolytic-resistant to enterokinase,Nap-ffk(AcNH-DEDDDLLIG)y,–,–,–,–,–,"Nap-ffky, 24 h",–

# — article PMC7653338 (Beilstein Journal of Organic Chemistry, 2020)
